Measurements published in publication PMC10523748, “Cytotoxicity, acute and sub-chronic toxicities of the leaves of Bauhinia thonningii (Schumach.) Milne-Redh. (Caesalpiniaceae)” (BMC Complementary Medicine and Therapies, 2023).

How the values were obtained:
[1] = tested on: CCRF-CEM cells; design: method as in PMID 12064912; conditions: cited from earlier work
[2] = tested on: CEM/ADR5000 cells; design: method as in PMID 12064912; conditions: cited from earlier work
[3] = tested on: U87MG glioblastoma cells; assay: RRA cytotoxicity, U87MG; conditions: Homo sapiens, U-87 MG, 72 h
[4] = tested on: HepG2 hepatocarcinoma cells; assay: RRA cytotoxicity, HepG2; conditions: Homo sapiens, HepG2, 72 h
[5] = tested on: CEM/ADR5000 leukemia cells (P-gp-overexpressing); assay: RRA cytotoxicity, CEM/ADR5000
[6] = tested on: U87MG.ΔEGFR cells; assay: RRA cytotoxicity, U87MG.ΔEGFR; conditions: Homo sapiens, 72 h
[7] = tested on: HCT116 p53^+/+ colon adenocarcinoma cells; assay: RRA cytotoxicity, HCT116 p53^+/+; conditions: Homo sapiens, HCT-116, 72 h
[8] = tested on: HCT116 p53^−/− cells; assay: RRA cytotoxicity, HCT116 p53^−/−; conditions: Homo sapiens, HCT-116, 72 h
[9] = tested on: MDA-MB-231-BCRP cells; assay: RRA cytotoxicity, MDA-MB-231-BCRP
[10] = tested on: MDA-MB-231-pcDNA breast adenocarcinoma cells; assay: RRA cytotoxicity, MDA-MB-231-pcDNA; conditions: Homo sapiens, 72 h
[11] = tested on: normal AML12 hepatocytes; assay: RRA cytotoxicity, normal AML12 hepatocytes; conditions: Mus musculus, AML12, 72 h
[12] = tested on: 9 tested cancer cell lines; assay: RRA cytotoxicity, whole panel of cancer cell lines; conditions: 9 cancer cell lines, up to 50 µM
[13] = tested on: CCRF-CEM leukemia cells; assay: Resazurin reduction assay (RRA) cytotoxicity, CCRF-CEM; conditions: 72 h

Structure (SMILES): O=c1c(O)c(-c2ccc(O)c(O)c2)oc2cc(O)cc(O)c12 [Compound 4, quercetin]
- IC50 [1]: 25 µM
- IC50 [2]: 101 µM
- IC50 [3]: > 50 µM
- IC50 [4]: > 50 µM
- IC50 ([5]; Homo sapiens, ADR5000, 72 h): > 50 µM
- Degree of resistance ([5]; IC50 CEM/ADR5000 versus CCRF-CEM): > 1.83
- IC50 [6]: > 50 µM
- IC50 [7]: > 50 µM
- IC50 [8]: > 50 µM
- IC50 ([9]; Homo sapiens, MDA-MB-231/BCRP, 72 h): > 50 µM
- Degree of resistance ([9]; IC50 MDA-MB-231-BCRP versus MDA-MB-231-pcDNA): > 1.18
- IC50 [10]: 42.3 ± 3.29 µM
- IC50 [11]: > 50 µM
- Cytotoxic activity in the panel [12]: selectively active
- IC50 [13]: 27.3 ± 3.12 µM
- IC50 ([13]; Homo sapiens): 27 µM
